# Columns and labels:
# [1] = system: ADX cells; assay: Daunorubicin trafficking into the nucleus of ADX cells (confocal microscopy); assay type: cell-based, Chinese hamster; settings: for percent of ADX cells displaying nuclear daunorubicin: Mean ± 95% CI
# Description: ADX cells were grown on 4-well slides, 20 uM daunorubicin was added for […], followed by various dose of liposomes containing C16:0 ceramide, sphingomyelin, C16:0 dihydroceramide or phosphatidylcholine for 1 h. Cells were examined under Leica SP-5 inverted confocal microscope. Y axis represents percent of cells with nuclear drug.
# ADX cells were grown on 4-well slides. 3.5×10^4 ADX cells were incubated with 20 μM daunorubicin in DMEM HG:F-12 medium without serum. After 2 hours, at which time daunorubicin had reached steady state accumulation in cytoplasmic vesicles, liposomes containing long and very long chain ceramides were added to cells at 0, 1, 2, and 5 μM. After a 1 hour-incubation at 37° C., nuclear localization of daunorubicin was determined by confocal microscopy. Cells were examined under Leica SP-5 inverted confocal microscope. Y axis represents percent of cells with nuclear drug.
# [2] = system: ADX cells; assay: MTT cell survival assay in MDR ADX cells; assay type: cell-based, Chinese hamster; settings: for enhanced cell kill: ADX MDR cells with daunorubicin; for chemosensitization of ADX cells by sphingomyelinase: exogenous sphingomyelinase, data not shown; for EC50: Cricetulus griseus
# Description: (§1) A, time course of sphingomyelin changes in DC-3F and ADX cells after B. cereus SMase (0.05 U/mL) treatment. B, time course of ceramide generation. C, DC-3F and ADX cells were treated with increasing doses of B. cereus SMase (0-2 U/mL) and cell survival was measured by MTT (3-(4,5-dimethylthiazol-2-yl)-2,5-diphenyltetrazolium bromide) tetrazolium reduction (MTT) assay. D, Cells were seeded in 96-well plates (2×10^3 cells/well) in a 0.1 ml DME:F12 medium containing 5% FBS and cultured at 37° C. for 24 hours before addition of daunorubicin.
# (§2) A, DC-3F and ADX cells were treated with increasing doses of daunorubicin. B, DC-3F and ADX cells were incubated with B. cereus SMase (0.0-0.05 U/ml) and treated with daunorubicin for 1 day. Cell survival was measured by MTT assay. Data are from one representative of three independent studies.
# [3] = system: DC-3F cells; assay: MTT cell survival assay in parental DC-3F cells; assay type: cell-based, Chinese hamster
# Description: as §1, §2
# [4] = system: DC-3F tumor; assay: DC-3F flank tumor response to doxorubicin; assay type: in vivo, athymic nude mice; settings: 8 mg/kg×3
# Description: (§3) Tumors were created in the right flanks of athymic nude mice using 5×10^6 DC-3F cells or ADX cells and at tumor volumes of 100-150 mm^3 were treated with Doxorubicin 8 mg/kg i.v. weekly (arrows) for 3 weeks. Tumor volumes were measured daily according to the formula of Kim et al. (Cancer Res 1986: 46, 1120) for 3 months. Collated data in upper panels represent mean±SEM. Data in lower panels represent individual tumor patterns.
# [5] = ×4 doses/25 g mouse; cited from earlier work
# [6] = system: ADX tumor; assay: ADX MDR flank tumor response; settings: 8 mg/kg×3
# Description: as §3
# 5×10^6 ADX cells were implanted into athymic nude mice by s.c. injection. Treatment was started on day 21 when tumor was 100 mm^3. 8 mg/kg Dox (arrows) was injected i.v. every 7 days followed by 1 μmol/mouse liposomal C16:0 ceramide for a total of 3 treatments (total Dox=24 mg/kg, the MTD in mice). Left panel of A) represents individual tumor growth with Dox alone. Right panel of A) represents tumor response when treated with Dox+1 μmol/mouse liposomal ceramide. Panel B is mean tumor growth response of Dox alone and combined treatment.
# ADX flank tumors (in athymic Nude-FoxN1 nu mice) were loaded to isotopic steady state for 1 h by systemic administration of Dox (20 mg/kg), and 1 μmol of C16:0 ceramide containing liposomes/mouse was injected i.v. Mice were sacrificed 1 h thereafter, and tumors snap frozen in OCT at −80° C.
# [7] = Doxorubicin MTD studies in mice; settings: mouse, in vivo, intravenous, 8 mg/kg
# Description: Methods: Liposome Delivery, MTD, PK: Liposomes and free doxorubicin are delivered intravenously and MTD and PK determined in accordance with known protocols.
Molecule,percent of ADX cells displaying nuclear daunorubicin ([1]; ceramide 1 μM) [%],percent of ADX cells displaying nuclear daunorubicin ([1]; ceramide 2 μM) [%],percent of ADX cells displaying nuclear daunorubicin ([1]; ceramide 5 μM) [%],also measured
CCCCCCCCCCCCC/C=C/[C@@H](O)[C@H](CO)NC(C)=O [C2:0],7.5 ± 2.5,12.5 ± 3.3,7.0 ± 1.6,
CCCCCCCCCCCCC/C=C/[C@@H](O)[C@H](CO)NC(=O)CCC [C4:0],8.0 ± 2.4,11.9 ± 2.7,13.0 ± 2.1,
CCCCCCCCCCCCC/C=C/[C@@H](O)[C@H](CO)NC(=O)CCCCC [C6:0],8.8 ± 2.4,12.2 ± 2.0,16.2 ± 2.3,
CCCCCCCCCCCCC/C=C/[C@@H](O)[C@H](CO)NC(=O)CCCCCCC [C8:0],11.4 ± 1.9,19.8 ± 2.1,35.5 ± 2.4,
CCCCCCCCCCCCC/C=C/[C@@H](O)[C@H](CO)NC(=O)CCCCCCCCC [C10:0],6.8 ± 2.2,13.1 ± 2.8,20.0 ± 2.4,
CCCCCCCCCCCCC/C=C/[C@@H](O)[C@H](CO)NC(=O)CCCCCCCCCCC [C12:0],8.9 ± 3.0,18.8 ± 3.2,22.3 ± 3.1,
CCCCCCCCCCCCC/C=C/[C@@H](O)[C@H](CO)NC(=O)CCCCCCCCCCCCC [C14:0],7.4 ± 2.4,17.6 ± 3.4,23.4 ± 3.2,
"CCCCCCCCCCCCC/C=C/[C@@H](O)[C@H](CO)NC(=O)CCCCCCCCCCCCCCC [C16:0, N-palmitoyl (C16:0) ceramide]",13.9 ± 1.7,24.3 ± 2.0,48.3 ± 2.7,enhanced cell kill [2]: 25 fold; trafficking of daunorubicin into the nucleus ([1]; ADX cells pre-loaded with 20 μM daunorubicin): nuclear transfer occurred only with C16:0 ceramide treatment
N.N.[Cl][Pt][Cl] [cis-platinum],,,,chemosensitization of ADX cells by sphingomyelinase [2]: chemosensitization of ADX cells was also achieved
COc1cccc2c1C(=O)c1c(O)c3c(c(O)c1C2=O)C[C@@](O)(C(C)=O)C[C@@H]3O[C@H]1C[C@H](N)[C@H](O)[C@H](C)O1 [daunorubicin],,,,"EC50 ([3]; Cricetulus griseus, DC3F, parental DC-3F cells): 0.8 µM; EC50 ([2]; ADX cells treated with increasing doses of exogenous sphingomyelinase): 4 µM; EC50 ([2]; ADX cells, without sphingomyelinase): 92 µM"
COc1cccc2c1C(=O)c1c(O)c3c(c(O)c1C2=O)C[C@@](O)(C(=O)CO)C[C@@H]3O[C@H]1C[C@H](N)[C@H](O)[C@H](C)O1 [doxorubicin],,,,tumor response to doxorubicin [4]: sensitive; published MTD [5]: about 9 mg/kg; tumor response to doxorubicin [6]: totally resistant; MTD at 3 weeks [7]: 24 mg/kg
CN[C@@H]1C[C@H]2O[C@@](C)([C@@H]1OC)n1c3ccccc3c3c4c(c5c6ccccc6n2c5c31)C(=O)NC4 [staurosporine],,,,chemosensitization of ADX cells by sphingomyelinase [2]: no sensitization was achieved
CC[C@]1(O)C[C@H]2CN(CCc3c([nH]c4ccccc34)[C@@](C(=O)OC)(c3cc4c(cc3OC)N(C=O)[C@H]3[C@@](O)(C(=O)OC)[C@H](OC(C)=O)[C@]5(CC)C=CCN6CC[C@]43[C@@H]65)C2)C1 [vincristine],,,,chemosensitization of ADX cells by sphingomyelinase [2]: chemosensitization of ADX cells was also achieved
"sphingomyelinase: exogenous bacterial sphingomyelinase used to generate endogenous ceramide (protein, UniProt P09599 28-333, looked up) Sphingomyelinase C: DTSTDQNNTLKVMTHNVYMLSTNLYPNWGQSQRADLIGAADYIKNQDVVILNEVFDNSASDRLLGNLKKEYPNQTAVLGRSNGNEWDKTLGSYSSSTPEDGGVAIVSKWPIVEKIQYVFAKGCGPDNLSNKGFVYTKIKKNDRFVHVIGTHLQAEDSMCGKTSPASVRTNQLKEIQDFIKNKNIPNDEYVLFGGDMNVNKINAENNSDSEYASMFKTLHASIPSYTGHTATWDATTNSIAKYNFPDSPAEYLDYIIASKDHANPSFIENKVLQPKSPQWTVTSWLKKYTYDDYSDHYPVAATISMK",,,,effect of sphingomyelinase treatment on DC-3F cells ([3]; daunorubicin sensitivity): unaffected; enhanced cell kill [2]: 25 fold
